Assays:
[1] = tested on: reuptake of dopamine in synaptosomes of rat forebmin; test: Inhibition of reuptake of dopamine in synaptosomes of rat forebrain (3H-dopamine uptake); assay type: biochemical, rat (male Wistar); conditions: for IC50: rat forebrain synaptosomes, 3H-dopamine 1×10^-9 M, 10 min at 37° C., read-out: Dopamine reuptake inhibiting activity (IC50)
Description: Fresh whole forebmin (at 0°-4° C.) from male Wistar rats (150-200 g) is homogenized in a glass homogenizer with a teflon pestle in 20×volumes 0.32M sucrose. The homogenate is centrifuged at 1000×g (~2900 rpm) for 10 min. The pellet is discarded and the supernatant is used for uptake assays.
The samples are thoroughly mixed and incubated 10 min at 37° C. followed by 2 min at 0° C. After incubation the samples are poured directly onto Whatman GF/C glass fibre filters under suction and immediately washed with 2×5 ml ice-cold 0.9% saline (NaCI) buffer. To the filter is added 3 ml of scintillation fluid, and the amount of radioactivity on the filters is determined by conventional liquid scintillation counting.

[2] = tested on: excitatory Iocomotor and rearing responses; test: Classification of behavioural excitatory locomotor and rearing responses (side effect); assay type: in vivo, rat (male SPF wistar)
Description: Male SPF wistar rats weighing 200-250 g were used for the gross behavioural studies. All rats were transferred the day before the experiments to individual cages made of wire netting (floor area 21×27 cm, height 16 cm) at a room temperature of 21°-23° C. […] The behavioural elements here classified as rearing (i.e. standing up on the hindlegs) and Iocomotor activities (i.e. forward running activities) were registered, and the maximum peak effects were classified according to the following rating scale:
0=non-existent or very infrequent
++=moderate in intensity and frequency
+++=very strong, continuous and intense

[3] = tested on: abnormal stereotyped behaviour; test: Classification of the abnormal stereotyped behaviour (side effect); assay type: in vivo, rat
Text: Classification of the abnormal stereotyped behaviour.
Backward locomotion may occasionally be observed.
+=only stereotyped sniffing
++=stereotyped sniffing and episodic licking
+++=Continuous licking and/or biting gnawing

[4] = tested on: serotonine (5-hydroxythryptamine, 5-HT) reuptake; test: Serotonin (5-HT) reuptake inhibition; assay type: biochemical; conditions: in combination with dopamine reuptake inhibition

Row | Structure (SMILES) | IC50 [1] [nM] | Activity (excitatory locomotor and rearing responses, maximum peak effect) ([2]; 50 mg/kg i.p.) | Activity (high intensity abnormal stereotyped behaviour) ([3]; 50 mg/kg i.p.) | side effects as measured by excitatory locomotor activity and rearing responses as well as abnormal stereotyped behaviour ([2]; every relevant dosing level tested) | Activity (high intensity abnormal stereotyped behaviour) ([3]; 25 mg/kg i.p.) | dopamine reuptake inhibiting activity (in words) [1] | serotonine (5-HT) reuptake inhibiting activity [4]
1 | COC(=O)[C@@H]1[C@@H](c2ccc(Cl)c(Cl)c2)C[C@@H]2CC[C@H]1N2C [(1R,2R,3S)-2-carbomethoxy-3-(3,4-dichlorophenyl)tropane] | 16 | + | +++ | – | – | – | –
2 | COC(=O)[C@@H]1[C@@H](c2ccc(F)cc2)C[C@@H]2CC[C@H]1N2C [trans isomer of Win 35,428, (1R,2R,3S)-2-carbomethoxy-3-(4-fluorophenyl)tropane] | – | – | – | essentially or totally devoid of side effects | – | – | –
3 | COC(=O)[C@@H]1[C@@H](c2ccc3ccccc3c2)C[C@@H]2CC[C@H]1N2C [(1R,2R,3S)-2-carbomethoxy-3-(2-naphthyl)tropane] | 100 | – | – | – | 0 | – | –
4 | CN1[C@H]2CC[C@@H]1[C@H](COc1ccc(Cl)cc1)[C@@H](c1ccc(F)cc1)C2.Cl [(1R,2R,3S)-2-(4-Chlorophenoxy-methyl)-3-(4-fluorophenyl)tropane, hydrochloride] | 390 | – | 0 | – | – | potent dopamine reuptake inhibiting activity | very potent serotonine (5-hydroxythryptamine, 5-HT) reuptake inhibiting activity

— patent US5374636A, “2,3-trans-disubstituted tropane compounds which have useful pharmaceutical utility” (NeuroSearch A/S, priority 1992, dated 1994)
